From patent US5418232A, “Diazabicycloalkene derivatives” (Daiichi Pharmaceutical Co., Ltd., priority 1992, dated 1995)
Blank lines part the entries; values can stand above or below the compound they belong to.

What was measured:
[1] = system: spontaneously hypertensive rats; assay: Effect on renal blood flow (Doppler probe); format: in vivo, rat; conditions: for Increase in Renal Blood Flow 1 Hr after Administration: oral, dose which reduced blood pressure by about 50 mmHg; for activity in increasing the renal blood flow vs reference drug (in words): vs EMD57283
Method: Twenty-week-old male spontaneously hypertensive rats (body weight: 350-430 g) were anesthetized with pentobarbital (30 mg/kg, i.p.). An incision was made in the abdomen on the left side, and a Doppler probe for blood flow measurement was fitted to the left renal artery, and the code (wire lead) of the probe was passed under the back skin and taken out from the back of the neck. After 1 week from the operation, the code of the probe was connected to a Doppler blood flow meter to start measurement of the renal blood flow. After the renal blood flow reached to a steady state, a test compound was orally administered, and changes in renal blood flow were observed up to 9 hours. The test compound was used at a dose which reduced blood pressure by about 50 mmHg.

[2] = system: spontaneously hypertensive rats; assay: Antihypertensive activity in spontaneously hypertensive rats (oral, tail-cuff); format: in vivo, rat; conditions: for ED (50 mmHg): Rattus norvegicus, systolic blood pressure, read-out: ED50mmHg (effective dose for reducing blood pressure by 50 mmHg); for Max. increase of Heat Rate / Time for Onset of Max. Activity: dose reducing blood pressure by 50 to 60 mmHg
Method: Male spontaneously hypertensive rats (16 to 20-week-old; body weight: 300-400 g) fed ab lib. were forceably given oral administration of a test compound suspended in 0.5% (w/v) carboxymethyl cellulose aqueous solution. After 1, 2, 4, 6, 8, 24, 30 or 48 hours from the administration, the systolic blood pressure was measured by a tail-cuff method described in Arzneimittel-Forschung, Vol. 18, pp. 1285-1287 (1968)).
The antihypertensive activity of the test compound was obtained as an effective dose for reducing blood pressure by 50 mmHg (ED50mmHg). Further, the time of onset of the maximum activity and the maximum increase in heart rate at a dose for reducing blood pressure by 50 to 60 mmHg were measured.
The statistical difference between a test compound and EMD57283 was analyzed by the Student's t-test.

Guinea Pig Tracheae = assay: Relaxing activity in guinea pig tracheae contracted with 30 mM potassium chloride; format: cell-based; conditions: for EC50: Cavia porcellus, relaxation by 10^-8 g/ml isoproterenol as 100%, read-out: EC50 (concentration inducing 50% relaxation)
Method: Male guinea pigs (body weight: 400-650 g) were sacrificed by exsanguination, and tracheae were excised.
Tracheal responses were measured isometrically using a transducer "EF-601G" (manufactured by Nihon Koden Kogyo Co., Ltd.) and recorded on a multi-pen recorder "R64 GP" (manufactured by Rika Denki Co., Ltd.). The initial tension in the tracheal preparation was set up at 1 g after the preparation had equilibrated for about 60 minutes, a 30 mM potassium chloride was added to cause contraction.

Potassium channel = biological target: T1, Potassium channel (Rattus norvegicus, UniProt Q63563); assay: Potassium channel opening activity, 86Rb release from excised rat aorta segment; format: cell-based, Wistar rat; conditions: for potassium channel opening activity (in words): conclusion from Table 5; for ECAUC0.2 (effective concentration at which the area under the peak of the 86Rb release rate reached 0.2): rat aorta segment surface-perfused with test compound for 10 minutes
T1 construct: a segment of an excised aorta of a Wistar rat; from tissue; host or cells: excised aorta segment of Wistar rat

male HOS-Donryu rats = assay: Antianginal activity, vasopressin-induced ST segment depression; format: in vivo, rat; conditions: for S Value (area of ST segment depression over 5 minutes): i.v., Example 47 0.01, Nifedipine 0.03, Cromakalim 0.01 mg/kg, vasopressin 0.5 U/kg
Method: The test was carried out in accordance with the method of Hiramatsu, et al. (see Japanese Journal of Pharmacology, Vol. 20, p. 313 (1970)). […] A cannula for blood pressure measurement was inserted into the left femoral artery, and a cannula for drug administration was inserted into the left femoral vein. […] Then, ECG was taken every 30 seconds over a period of 5 minutes to observe depression of the ST segment. A control group was given the solvent for the drug (a solution in which 5% dimethyl sulfoxide, 5% polyethylene glycol 200 and 1% cremophor were dissolved in physiological saline).

T1 sequence (Q63563 1-1545 isoform Q63563-2): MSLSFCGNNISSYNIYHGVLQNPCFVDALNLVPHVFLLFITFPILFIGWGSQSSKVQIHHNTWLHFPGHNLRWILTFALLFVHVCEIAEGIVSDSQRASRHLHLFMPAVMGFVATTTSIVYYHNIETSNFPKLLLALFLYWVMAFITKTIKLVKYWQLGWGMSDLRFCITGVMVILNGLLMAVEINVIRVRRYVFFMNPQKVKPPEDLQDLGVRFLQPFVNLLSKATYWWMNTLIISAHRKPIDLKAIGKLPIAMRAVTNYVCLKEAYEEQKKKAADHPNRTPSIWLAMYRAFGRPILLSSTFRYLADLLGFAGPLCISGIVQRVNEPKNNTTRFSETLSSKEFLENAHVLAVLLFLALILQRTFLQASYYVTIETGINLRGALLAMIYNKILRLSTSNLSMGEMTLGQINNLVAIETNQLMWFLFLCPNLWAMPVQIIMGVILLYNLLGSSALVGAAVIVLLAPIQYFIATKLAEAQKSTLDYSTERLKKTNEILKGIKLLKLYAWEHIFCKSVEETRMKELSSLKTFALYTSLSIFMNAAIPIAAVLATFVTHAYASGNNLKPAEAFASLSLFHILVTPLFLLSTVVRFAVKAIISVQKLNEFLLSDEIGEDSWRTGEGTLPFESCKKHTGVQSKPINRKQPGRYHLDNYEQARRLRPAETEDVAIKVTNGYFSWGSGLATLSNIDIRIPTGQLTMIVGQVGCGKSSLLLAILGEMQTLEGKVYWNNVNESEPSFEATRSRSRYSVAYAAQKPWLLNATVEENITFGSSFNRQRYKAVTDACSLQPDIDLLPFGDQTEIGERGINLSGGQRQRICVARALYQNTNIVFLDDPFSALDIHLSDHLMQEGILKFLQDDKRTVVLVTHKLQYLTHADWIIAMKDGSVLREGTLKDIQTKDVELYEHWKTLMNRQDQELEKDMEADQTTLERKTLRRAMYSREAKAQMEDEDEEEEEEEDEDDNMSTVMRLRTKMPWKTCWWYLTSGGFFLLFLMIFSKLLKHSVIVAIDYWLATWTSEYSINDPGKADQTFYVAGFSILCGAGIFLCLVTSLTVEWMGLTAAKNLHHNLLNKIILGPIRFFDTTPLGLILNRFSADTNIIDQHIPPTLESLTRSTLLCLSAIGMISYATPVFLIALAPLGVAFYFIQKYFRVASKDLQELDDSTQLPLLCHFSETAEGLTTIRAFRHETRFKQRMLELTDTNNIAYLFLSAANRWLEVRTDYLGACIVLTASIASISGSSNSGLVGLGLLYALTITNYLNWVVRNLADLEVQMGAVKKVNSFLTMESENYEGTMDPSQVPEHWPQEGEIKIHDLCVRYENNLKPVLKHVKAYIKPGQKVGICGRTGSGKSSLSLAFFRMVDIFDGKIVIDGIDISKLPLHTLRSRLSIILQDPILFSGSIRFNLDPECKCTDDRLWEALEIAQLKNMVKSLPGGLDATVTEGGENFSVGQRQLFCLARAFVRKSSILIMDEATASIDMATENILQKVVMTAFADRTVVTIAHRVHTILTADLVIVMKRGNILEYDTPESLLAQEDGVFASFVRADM
T1 sequence (Q63664 whole entry partner, the tested form may be a part): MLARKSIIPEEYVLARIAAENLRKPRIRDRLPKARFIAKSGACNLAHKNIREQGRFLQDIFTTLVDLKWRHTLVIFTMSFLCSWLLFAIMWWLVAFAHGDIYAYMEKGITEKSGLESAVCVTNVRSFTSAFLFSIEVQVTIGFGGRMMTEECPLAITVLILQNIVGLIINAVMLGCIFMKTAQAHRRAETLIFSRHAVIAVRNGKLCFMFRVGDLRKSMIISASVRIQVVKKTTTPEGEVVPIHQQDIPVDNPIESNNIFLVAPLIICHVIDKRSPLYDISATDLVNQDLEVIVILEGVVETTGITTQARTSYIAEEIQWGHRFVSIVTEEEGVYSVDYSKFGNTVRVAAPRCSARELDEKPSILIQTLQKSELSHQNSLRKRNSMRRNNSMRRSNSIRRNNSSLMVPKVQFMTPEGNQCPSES

SMILES: CC1(C)Oc2ccc(C#N)cc2[C@@H](OC2=NN(Cc3c(Cl)cccc3Cl)C(=O)C3CC23)[C@@H]1O (relative stereo) [Example 36, (3S,4R,1'R*,6'S*)-4-(3-(2,6-dichlorobenzyl)-2-oxo-3,4-diazabicyclo[4.1.0]hept-4-en-5-yloxy)-3,4-dihydro-2,2-dimethyl-3-hydroxy-2H-1-benzopyran-6-carbonitrile]
Increase in Renal Blood Flow 1 Hr after Administration [1]: 15.4 ± 4.5%
activity in increasing the renal blood flow vs reference drug (in words) [1]: more potent activity in increasing the renal blood flow than the reference drug
antihypertensive activity (in words) [2]: potent antihypertensive activity
duration of activity (in words) [2]: long duration of activity
ED (50 mmHg) [2]: 0.4 mg/kg
Max. increase of Heat Rate [2]: 9.6 ± 1.3%
Time for Onset of Max. Activity [2]: 6.8 ± 0.5 h

EC50 (Guinea Pig Tracheae): 3 µM
SMILES: CC(C)=CCN1N=C(O[C@@H]2c3cc(C#N)ccc3OC(C)(C)[C@H]2O)C2CC2C1=O (relative stereo) [Example 29, (3S,4R,1'R*,6'S*)-3,4-dihydro-2,2-dimethyl-3-hydroxy-4-(3-(3-methyl-2-buten-1-yl)-2-oxo-3,4-diazabicyclo[4.1.0]hept-4-en-5-yloxy)-2H-1-benzopyran-6-carbonitrile]
activity in relaxing tracheal smooth muscle vs cromakalim (in words) (Guinea Pig Tracheae): more potent activity in relaxing tracheal smooth muscle than cromakalim

EC50 (Guinea Pig Tracheae): 5.5 µM
ECAUC0.2 (effective concentration at which the area under the peak of the 86Rb release rate reached 0.2) (Potassium channel): 0.18
SMILES: C=CCN1N=C(O[C@@H]2c3cc(C#N)ccc3OC(C)(C)[C@H]2O)C2CC2C1=O (relative stereo) [Example 23, (3S,4R,1'R*,6'S*)-4-(3-allyl-2-oxo-3,4-diazabicyclo[4.1.0]hept-4-en-5-yloxy)-3,4-dihydro-2,2-dimethyl-3-hydroxy-2H-1-benzopyran-6-carbonitrile]
activity in relaxing tracheal smooth muscle vs cromakalim (in words) (Guinea Pig Tracheae): more potent activity in relaxing tracheal smooth muscle than cromakalim
potassium channel opening activity (in words) (Potassium channel): possesses potassium channel opening activity

ECAUC0.2 (effective concentration at which the area under the peak of the 86Rb release rate reached 0.2) (Potassium channel): 0.16
SMILES: Cn1nc(O[C@@H]2c3cc(C#N)ccc3OC(C)(C)[C@H]2O)ccc1=O [EMD57283, (3S,4R)3,4-Dihydro-4-((1,6-dihydro-1-methyl-6-oxo-3-pyridazinyl)oxy)-2,2-imethyl-3-hydroxy-2H-1-benzopyran-6-carbonitrile, reference compound]
Increase in Renal Blood Flow 1 Hr after Administration [1]: 10.8 ± 4.1%
ED (50 mmHg) [2]: 0.0064 mg/kg
Max. increase of Heat Rate [2]: 41.3 ± 2.8%
Time for Onset of Max. Activity [2]: 2.8 ± 0.7 h

SMILES: CC1(C)Oc2ccc(C#N)cc2[C@@H](N2CCCC2=O)[C@@H]1O (relative stereo) [Cromakalim, 3,4trans-3,4-Dihydro-2,2-dimethyl-3-hydroxy-4-(2-oxopyrrolidin-1-yl)-2H-1benzopyran-6-carbonitrile, reference compound]
S Value (area of ST segment depression over 5 minutes) (male HOS-Donryu rats): 562 μV.min
EC50 (Guinea Pig Tracheae): 49 µM
ECAUC0.2 (effective concentration at which the area under the peak of the 86Rb release rate reached 0.2) (Potassium channel): 2.8

EC50 (Guinea Pig Tracheae): 5 µM
SMILES: CCCCN1N=C(O[C@@H]2c3cc(C#N)ccc3OC(C)(C)[C@H]2O)C2CC2C1=O (relative stereo) [Example 32, (3S,4R,1'R*,6'S*)-4-(3-n-butyl-2-oxo-3,4-diazabicyclo(4.1.0]hept-4-en-5-yloxy)-3,4-dihydro-2,2-dimethyl-3-hydroxy-2H-1-benzopyran-6-carbonitrile]
activity in relaxing tracheal smooth muscle vs cromakalim (in words) (Guinea Pig Tracheae): more potent activity in relaxing tracheal smooth muscle than cromakalim
antihypertensive activity (in words) [2]: potent antihypertensive activity
duration of activity (in words) [2]: long duration of activity
ED (50 mmHg) [2]: 0.076 mg/kg
Max. increase of Heat Rate [2]: 22.3 ± 5.9%
Time for Onset of Max. Activity [2]: 6.0 ± 0.6 h

SMILES: CC1(C)Oc2ccc(C#N)cc2[C@@H](OC2=NN(Cc3ccccc3)C(=O)[C@H]3C[C@@H]23)[C@@H]1O [Example 21, (3S, 4R, 1'S, 6'R)-4-(3-Benzyl-2-oxo-3,4-diazabicyclo[4.1.0]hept-4-en-5-yloxy)-3,4-dihydro-2,2-dimethyl-3-hydroxy-2H-1-benzopyran-6-carbonitrile]
Increase in Renal Blood Flow 1 Hr after Administration [1]: 59.4 ± 9.7%
activity in increasing the renal blood flow vs reference drug (in words) [1]: more potent activity in increasing the renal blood flow than the reference drug
antihypertensive activity (in words) [2]: potent antihypertensive activity
duration of activity (in words) [2]: long duration of activity
ED (50 mmHg) [2]: 0.053 mg/kg
Max. increase of Heat Rate [2]: 19.7 ± 3.0%
Time for Onset of Max. Activity [2]: 6.4 ± 0.5 h

ECAUC0.2 (effective concentration at which the area under the peak of the 86Rb release rate reached 0.2) (Potassium channel): 0.021
SMILES: CN1N=C(O[C@@H]2c3cc(C#N)ccc3OC(C)(C)[C@@]2(C)O)C2CC2C1=O (relative stereo) [Example 56, (3S,4R,1'R*,6'S*)-3,4-Dihydro-3-hydroxy-4-(3-methyl-2-oxo-3,4-diazabicyclo[4.1.0]hept-4-en-5-yloxy)-2,2,3-trimethyl-2H-1-benzopyran-6-carbonitrile]
potassium channel opening activity (in words) (Potassium channel): possesses potassium channel opening activity
antihypertensive activity (in words) [2]: potent antihypertensive activity
duration of activity (in words) [2]: long duration of activity
ED (50 mmHg) [2]: 0.0023 mg/kg
Max. increase of Heat Rate [2]: 19.2 ± 0.5%
Time for Onset of Max. Activity [2]: 6.4 ± 0.4 h

SMILES: CC1(C)Oc2ccc(C#N)cc2[C@@H](OC2=NN(Cc3ccc(Cl)cc3Cl)C(=O)C3CC23)[C@@H]1O (relative stereo) [Example 37, (3S,4R,1'R*,6'S*)-4-(3-(2,4-dichlorobenzyl)-2-oxo-3,4-diazabicyclo[4.1.0]hept-4-en-5-yloxy)-3,4-dihydro-2,2-dimethyl-3-hydroxy-2H-1-benzopyran-6-carbonitrile]
antihypertensive activity (in words) [2]: potent antihypertensive activity
duration of activity (in words) [2]: long duration of activity
ED (50 mmHg) [2]: 0.035 mg/kg
Max. increase of Heat Rate [2]: 9.2 ± 1.7%
Time for Onset of Max. Activity [2]: 7.6 ± 0.4 h

SMILES: COC(=O)C1=C(C)NC(C)=C(C(=O)OC)C1c1ccccc1[N+](=O)[O-] [Nifedipine, reference compound]
S Value (area of ST segment depression over 5 minutes) (male HOS-Donryu rats): 393 μV.min

SMILES: CN1N=C(O[C@@H]2c3cc(C#N)ccc3OC(C)(C)[C@H]2O)C2CC2C1=O (relative stereo) [Example 22, (3S,4R,1'R*,6'S*)-3,4-dihydro-2,2-dimethyl-3-hydroxy-4-(3-methyl-2-oxo-3,4-diazabicyclo(4.1.0]hept-4-en-5-yloxy)-2H-benzopyran-6-carbonitrile]
potassium channel opening activity (in words) (Potassium channel): possesses potassium channel opening activity
ECAUC0.2 (effective concentration at which the area under the peak of the 86Rb release rate reached 0.2) (Potassium channel): 0.18

SMILES: C#CCN1N=C(O[C@@H]2c3cc(C#N)ccc3OC(C)(C)[C@H]2O)C2CC2C1=O (relative stereo) [Example 24, (3S, 4R, 1'R*,6'S*)-3,4-dihydro-2,2-dimethyl-3-hydroxy-4-(2-oxo-3-(2-propyn-1-yl)-3,4-diazabicyclo[4.1.D]hept-4-en-5-yloxy)-2H-1-benzopyran-6-carbonitrile]
antihypertensive activity (in words) [2]: potent antihypertensive activity
duration of activity (in words) [2]: long duration of activity
ED (50 mmHg) [2]: 0.02 mg/kg
Max. increase of Heat Rate [2]: 22.2 ± 2.3%
Time for Onset of Max. Activity [2]: 5.6 ± 1.2 h

ECAUC0.2 (effective concentration at which the area under the peak of the 86Rb release rate reached 0.2) (Potassium channel): 0.21
SMILES: CC1(C)Oc2ccc(C#N)cc2[C@@H](OC2=NNC(=O)C3CC23)[C@@H]1O (relative stereo) [Example 47, (3S,4R,1'R*,6'S*)-3,4-Dihydro-2,2-dimethyl-3-hydroxy-4-(2-oxo-3,4-diazabicyclo[4.1.0]-hept-4-en-5-yloxy)-2H-1-benzopyran-6-carbonitrile]
antianginal activity (in words) (male HOS-Donryu rats; 0.01 mg/kg i.v.): significantly reduces the S value
S Value (area of ST segment depression over 5 minutes) (male HOS-Donryu rats): 109 μV.min
Increase in Renal Blood Flow 1 Hr after Administration [1]: 24.3 ± 13.7%
activity in increasing the renal blood flow vs reference drug (in words) [1]: more potent activity in increasing the renal blood flow than the reference drug
potassium channel opening activity (in words) (Potassium channel): possesses potassium channel opening activity
